Laboratory results: patent US5045530A, “Pharmaceutical preparations” (priority 1986, dated 1991)
Several values for one entry are separate records, joined by “and”; a condition that tells them apart may be missing. Equal values may be shown once. Read-outs that look alike come from different tables or passages of the source.

Experiments:
[1] = critical micellization concentration (cmc); type: physicochemical
[2] = hydrodynamic (Stokes) radius / size of micelles and vesicles, inelastic light scattering; type: physicochemical
[3] = target: B. subtilis DNA polymerase III (Bacillus subtilis, UniProt P13267); assay: inhibition of DNA polymerase III by micellarly included Hg(CN)2 and Hg(CN)2 ascorbate; type: biochemical; conditions: micellarly included Hg(CN)2 / Hg(CN)2 ascorbate in the tenside named
Chain of B. subtilis DNA polymerase III (P13267 whole entry): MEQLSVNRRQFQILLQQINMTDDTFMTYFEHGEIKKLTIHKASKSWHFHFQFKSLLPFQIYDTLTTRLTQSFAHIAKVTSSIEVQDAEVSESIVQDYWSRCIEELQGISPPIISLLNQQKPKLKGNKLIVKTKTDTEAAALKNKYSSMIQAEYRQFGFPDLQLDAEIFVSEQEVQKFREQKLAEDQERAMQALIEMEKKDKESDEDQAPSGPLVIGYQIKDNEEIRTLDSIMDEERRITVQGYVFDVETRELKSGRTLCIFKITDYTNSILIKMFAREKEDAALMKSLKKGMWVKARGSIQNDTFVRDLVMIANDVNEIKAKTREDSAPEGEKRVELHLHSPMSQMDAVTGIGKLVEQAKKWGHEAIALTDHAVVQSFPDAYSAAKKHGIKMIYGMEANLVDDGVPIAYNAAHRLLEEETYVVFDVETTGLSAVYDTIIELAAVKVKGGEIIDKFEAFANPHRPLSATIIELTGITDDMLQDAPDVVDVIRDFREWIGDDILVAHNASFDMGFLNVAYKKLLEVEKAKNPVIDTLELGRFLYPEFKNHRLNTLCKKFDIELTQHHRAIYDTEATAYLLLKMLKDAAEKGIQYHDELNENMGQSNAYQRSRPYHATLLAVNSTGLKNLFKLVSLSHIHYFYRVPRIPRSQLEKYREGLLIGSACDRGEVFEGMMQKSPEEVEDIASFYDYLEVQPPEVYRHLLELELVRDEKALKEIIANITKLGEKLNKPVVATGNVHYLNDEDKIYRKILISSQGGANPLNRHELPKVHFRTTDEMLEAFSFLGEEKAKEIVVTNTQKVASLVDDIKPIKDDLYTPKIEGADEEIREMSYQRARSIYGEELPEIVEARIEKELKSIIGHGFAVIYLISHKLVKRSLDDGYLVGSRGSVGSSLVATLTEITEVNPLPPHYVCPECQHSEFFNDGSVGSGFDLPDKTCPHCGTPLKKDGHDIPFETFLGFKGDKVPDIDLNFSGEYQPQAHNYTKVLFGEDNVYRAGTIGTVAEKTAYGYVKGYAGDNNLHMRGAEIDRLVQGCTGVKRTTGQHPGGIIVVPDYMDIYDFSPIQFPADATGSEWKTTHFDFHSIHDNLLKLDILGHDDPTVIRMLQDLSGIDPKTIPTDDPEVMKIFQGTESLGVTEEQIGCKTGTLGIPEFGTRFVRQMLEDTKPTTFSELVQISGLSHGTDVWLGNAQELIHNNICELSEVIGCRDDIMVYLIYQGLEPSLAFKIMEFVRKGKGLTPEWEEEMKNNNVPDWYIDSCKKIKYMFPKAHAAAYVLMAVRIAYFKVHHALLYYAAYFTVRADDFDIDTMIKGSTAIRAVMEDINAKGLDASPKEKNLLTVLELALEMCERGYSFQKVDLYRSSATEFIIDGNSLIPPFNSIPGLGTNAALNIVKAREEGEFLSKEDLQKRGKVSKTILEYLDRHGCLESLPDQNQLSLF
Procedure: Analogously to example 2 10 mg Hg(CN)2 and 40 mg Na ascorbate at pH 7.0 are dissolved in 10 ml phosphate buffer. The suspension is subjected to an ultrasonic treatment at 0° C. for 5 min, slowly heated to 20° C. and centrifuged to a 10% (^w /w) linear glycerol gradient in a preparative ultracentrifuge at 1000 xg for 6 hours (20° C., Polyalomer tubes).
The inhibitor concentrations are given in 50% of the complete inhibition. The assay which was used is that according to Clements, J; D'Ambrosio, J; Brown, N.C; J.Biol.Chem. (1975) 250, 522 and Wright, G.E.; Brown, N.C; Biochem. Biophys. Acta (1976) 432, 37.

influenza virus type B = assay: inhibition of influenza B in vitro; type: cell-based
Procedure: Amantadine (1-adamantanamine-HCl) has a particular pharmadynamic action against influenza viruses (class A). The replication of most influenza A strains is inhibited in vitro between 0.2-0.6 μg/ml. Micellarly included amantadine in cationic micelles, in particular of the form (Het≡N--(CH2)x --CH3)Y⊖, effect a reduction of the concentration of pharmaceutical active substance to 0.05 μg/ml amantadine, measured by Hayden et al. (Plaque inhibition assay for drug susceptibility resting of influenza viruses. Antimicrob. Ag. Chemother. 1980, 17: […]; Grunert et al.; Sensitivity of influenza A/New Jersey 18/76/(Hswl-Nl) virus to amantadine HCl, J. Inf. Dis. 1977, 136, 297-300).
With a concentration of 0.01% by weight of amantadine for influenza virus type B corresponding to a concentration of 0.5 μg/ml pharmaceutical active substance in vitro.

influenza A virus = type: cell-based
influenza A strains [4] = type: cell-based, influenza virus type A
influenza A strains [5] = conditions: amantadine on its own, in vitro; cited from earlier work
[6] = system: influenza virus, subgroup A2; Herpes simplex virus HSV I-III; type: cell-based; conditions: monolayer cells infected with Herpes simplex virus type 1 or influenza virus type A2; with N+-tensides of formula I and II
[7] = micellar incorporation of active substances by dialysis, extinction at 260 nm; type: physicochemical; conditions: hexadecylpyridinium chloride micelles, 20° C., pH 5.5
pyrimidine biosynthesis = assay: pyrimidine biosynthesis; conditions: micellarly included
salivary secretion = conditions: in vivo
fungus = assay: antifungal effect in combination with N-tensides; conditions: combination with N+ tensides of formula I and II
adenosine-desaminase = target: T1, adenosine-desaminase (Homo sapiens, UniProt P00813); assay: antitumor activity of micellarly dissolved adenosine-desaminase inhibitors; conditions: dissolved micellarly according to formula I and II
T1 sequence (P00813 1-363): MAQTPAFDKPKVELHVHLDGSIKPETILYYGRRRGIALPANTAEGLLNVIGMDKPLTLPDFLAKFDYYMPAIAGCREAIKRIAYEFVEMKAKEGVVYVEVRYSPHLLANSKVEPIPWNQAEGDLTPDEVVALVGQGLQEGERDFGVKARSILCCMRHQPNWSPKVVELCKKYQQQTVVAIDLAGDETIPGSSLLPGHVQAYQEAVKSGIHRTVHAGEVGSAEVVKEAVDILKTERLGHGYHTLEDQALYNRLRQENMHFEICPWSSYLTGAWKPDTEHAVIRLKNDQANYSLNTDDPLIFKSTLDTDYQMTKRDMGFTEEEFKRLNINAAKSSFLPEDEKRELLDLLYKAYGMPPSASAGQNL

[8] = in vivo; cited from earlier work

## 2,5-Dimethyl-3-hexadecyl-thiazolium
[1]; Table 2, HET≡N+-(CH2)x-CH3 Y-
  cmc × 10^-6 M: 15.00 × 10^-6 M

## 2,6-Dihydroxy-dodecyl-pyrimidinium
[1]; Table 2, HET≡N+-(CH2)x-CH3 Y-
  cmc × 10^-6 M: 1.90 × 10^-6 M

## 2-Carboxamid-3-hexadecyl-1,4-pyridinium
[2]; Table 3, counter ion Y- = NO3-
  <RH> hydrodynamic radius: 440 Å

## 2-Hydroxy,5-methyl,6-amino-hexadecyl-pyrimidinium
[1]; Table 2, HET≡N+-(CH2)x-CH3 Y-
  cmc × 10^-6 M: 1.00 × 10^-6 M

## 2-Hydroxy,6-amino-hexadecyl-pyrimidinium
[1]; Table 2, HET≡N+-(CH2)x-CH3 Y-
  cmc × 10^-6 M: 2.00 × 10^-6 M

## 2-carboxamid-3-dodecyl-1,4-pyridinium
[2]; Table 3, counter ion Y- = NO3-
  <RH> hydrodynamic radius: 366 Å

## 3,5-bis[n-hexadecyloxy-carbonyl]-N-methyl-pyridinium
[3]
  competitive with: dGTP

## 3-Dodecyl-6-methyl-benzimidazolium
[1]; Table 2, HET≡N+-(CH2)x-CH3 Y-
  cmc × 10^-6 M: 7.30 × 10^-6 M

## 3-Hexadecyl-5,6-dihydroxy-benzthiazolium
[1]; Table 2, HET≡N+-(CH2)x-CH3 Y-
  cmc × 10^-6 M: 7.90 × 10^-6 M

## 3-Hexadecyl-6-methyl-benzimidazolium
[1]; Table 2, HET≡N+-(CH2)x-CH3 Y-
  cmc × 10^-6 M: 17.00 × 10^-6 M

## 3-Hexadecylbenzimidazolium
[1]; Table 2, HET≡N+-(CH2)x-CH3 Y-
  cmc × 10^-6 M: 6.70 × 10^-6 M

## 3-Hexadecylthiazolium
[1]; Table 2, HET≡N+-(CH2)x-CH3 Y-
  cmc × 10^-6 M: 0.91 × 10^-6 M

## 3-[[(Dimethylamino)-carboxyl]oxyl]-1-hexadecyl-pyridinium
[3]
  competitive with: dATP

## 4-Methyl- -2-hexadecyl-pyrazolium
[1]; Table 2, HET≡N+-(CH2)x-CH3 Y-
  cmc × 10^-6 M: 0.70 × 10^-6 M

## 5-Methyl-1-hexadecylimidazolium
[1]; Table 2, HET≡N+-(CH2)x-CH3 Y-
  cmc × 10^-6 M: 3.90 × 10^-6 M

## 8-Ketohexadecylpyridinium
[3]
  competitive with: dGTP

## Cl.NC12CC3CC(CC(C3)C1)C2 [1-adamantaneamine HCl, 1-adamantanamine-HCl]
Influenza virus type B; amantadine on its own
  activity against influenza virus type B: practically no activity
Influenza virus type B; micellarly included in cationic tensides, 0.01% by weight of amantadine
  concentration showing inhibition of influenza virus type B: 0.5 µg/mL
Influenza A virus
  Inhibition, 10log (pfu/ml of the inhibitor)/(pfu/ml check): -1.11
  Titration of infection, Plaque forming units: 2 × 10^6
Influenza A strains [4]
  concentration of active substance for inhibition: 0.05 µg/mL
Influenza A strains [5]
  concentration inhibiting replication of most influenza A strains: 0.2 to 0.6 µg/mL

## CCCCCCCCCCCCCCCC[n+]1c(O)ncc(F)c1O [2,6-Dihydroxy,5-Fluor,hexadecyl-pyrimidinium]
[1]; Table 2, HET≡N+-(CH2)x-CH3 Y-
  cmc × 10^-6 M: 0.85 × 10^-6 M

## CCCCCCCCCCCCCCCC[n+]1cc(F)c(O)cc1O [2,-4-Dihydroxy-5-Fluoro hexadecyl-pyridinium]
[2]
  <RH> hydrodynamic radius: 210 and 150

## CCCCCCCCCCCCCCCC[n+]1cc(C)c(O)cc1O [2,-4-Dihydroxy-5-methyl-hexadecyl-pyridinium]
[2]
  <RH> hydrodynamic radius: 1000 and 1500

## CCCCCCCCCCCCCCCC[n+]1ccnc(C(N)=O)c1 [2-Carboxamide-4-hexadecyl-1,4-diazinium]
[1]; Table 2, HET≡N+-(CH2)x-CH3 Y-
  cmc × 10^-6 M: 0.30 × 10^-6 M

## CCCCCCCCCCCC[n+]1csc2ccccc21 [3-Dodocyl-benzthiazolium]
[1]; Table 2, HET≡N+-(CH2)x-CH3 Y-
  cmc × 10^-6 M: 10.90 × 10^-6 M

## CCCCCCCCCCCCCCCCC(CCCCCCCCCCCCCCCC)c1cc[n+](C)cc1.[Cl-] [4-(17-tritriacontyl)-N-methylpyridinium chloride]
[3]
  competitive with: dGTP

## CCCCCCCCCCCC[n+]1ccccc1 [Dodecyl-pyridinium]
[1]
  cmc × 10^-6 M: 1.52

## O=c1[nH]c(=O)n([C@H]2C[C@H](O)[C@@H](CO)O2)cc1I [Idoxuridine, idoxuridine]
[6]
  lowering of the inhibition concentration compared with applications without quaternary ammonium bases: 30%
[7]; Table 1 experiment 1, Trifluoroamame 5, Idoxuridine […]100 ml
  Yield (%) of micellar incorporation: 95%
[7]; Table 1 experiment 2, Trifluoroamame 7.5, Idoxuridine 10.5 mg/100 ml
  Yield (%) of micellar incorporation: 98%
[7]; Table 1 experiment 3, Trifluoroamame 10.0, Idoxuridine 12.5 mg/100 ml
  Yield (%) of micellar incorporation: 98%
[7]; Table 1 experiment 4, Trifluoroamame 12.0, Idoxuridine […]100 ml
  Yield (%) of micellar incorporation: 98%
[7]; Table 1 experiment 5, Trifluoroamame 15.0, Idoxuridine 17.0 mg/100 ml
  Yield (%) of micellar incorporation: 97%
[7]; Table 1 experiment 6, Trifluoroamame 17.0, Idoxuridine 20.0 mg/100 ml
  Yield (%) of micellar incorporation: 96%
[7]; Table 1 experiment 7, Trifluoroamame 20.0, Idoxuridine 21.5 mg/100 ml
  Yield (%) of micellar incorporation: 98%
[7]; Table 1 experiment 8, Trifluoroamame 25.0, Idoxuridine 23.0 mg/100 ml
  Yield (%) of micellar incorporation: 100%
[7]; Table 1 experiment 9, Trifluoroamame 30.0, Idoxuridine 24.0 mg/100 ml
  Yield (%) of micellar incorporation: 100%
[7]; Table 1 experiment 10, Trifluoroamame 50.0, Idoxuridine 30.0 mg/100 ml
  Yield (%) of micellar incorporation: 100%

## O=C(O)C[C@H](NC(=O)CP(=O)(O)O)C(=O)O [N-(phosphonoacetyl)-aspartate]
Pyrimidine biosynthesis
  intensification of the effect on pyrimidine biosynthesis (blocking of the carbamylation of aspartate): 20 fold

## CN1[C@@H]2CC[C@H]1C[C@@H](OC(=O)C(CO)c1ccccc1)C2 (stereo partly drawn) [atropine]
Salivary secretion
  intensification of the inhibitory effect on salivary secretion: tenfold

## Clc1ccccc1C(c1ccccc1)(c1ccccc1)n1ccnc1 [clotrimazole]
fungus
  intensification of the antifungal effect by N+ tensides: ≈ 35%

## Nc1ccn([C@@H]2O[C@H](CO)[C@@H](O)[C@@H]2O)c(=O)n1 [cytarabine]
[6]
  lowering of the inhibition concentration compared with applications without quaternary ammonium bases: 30%

## Clc1ccc(COC(Cn2ccnc2)c2ccc(Cl)cc2Cl)cc1 (stereo not drawn) [econazole]
fungus
  intensification of the antifungal effect by N+ tensides: ≈ 35%

## CCCCCCCCCCCCCCCC[n+]1ccccc1.[Cl-] [hexadecylpyridinium chloride, N-(n-hexadecyl)-pyridinium chloride, reference compound]
[2]; pH 5.5
  RH (Å) (±5.0 Å): 45.0 and 50.5 and 60.0 and 65.0 and 71.5 and 75.0 and 78.0

## Clc1ccc(COC(Cn2ccnc2)c2ccc(Cl)cc2Cl)c(Cl)c1 (stereo not drawn) [miconazole]
fungus
  intensification of the antifungal effect by N+ tensides: ≈ 35%

## NC(=O)c1[nH]nc([C@@H]2O[C@H](CO)[C@@H](O)[C@H]2O)c1O [pyrazofurine]
Pyrimidine biosynthesis
  irreversible inhibition of pyrimidine biosynthesis: 20%

## CC(N)C12CC3CC(CC(C3)C1)C2.Cl (stereo not drawn) [rimantadine, α-methyl-1-adamantanemethylamine hydrochloride]
Influenza A strains [4]
  dose with the same in vitro effect as the pure active substance: 0.05 µg/mL

## O=c1[nH]c(=O)n([C@H]2C[C@H](O)[C@@H](CO)O2)cc1C(F)(F)F [trifluorothymidine]
[6]
  lowering of the inhibition concentration compared with applications without quaternary ammonium bases: 30%

## Cetyl-2,3-dihydroxy-propyl-hexadecyl-pyridinium
[2]
  <RH> hydrodynamic radius: 150.0 and 180.4 and 210.4 and 120.0

## Dodecyl-pyrimidinium
[1]; Table 2, HET≡N+-(CH2)x-CH3 Y-
  cmc × 10^-6 M: 1.20 × 10^-6 M

## Hexadecyl-4-Hydroxy-pyridinium
[1]; Table 2, HET≡N+-(CH2)x-CH3 Y-
  cmc × 10^-6 M: 0.95 × 10^-6 M

## Hexadecyl-pyrimidinium
[1]; Table 2, HET≡N+-(CH2)x-CH3 Y-
  cmc × 10^-6 M: 2.50 × 10^-6 M

## N-Hexadecyl-4-cetyl-imidazolinium
[2]
  <RH> hydrodynamic radius: 100 and 150

## erythro-9-(2-hydroxy-3-nonyl)-adenine
adenosine-desaminase
  intensification of the antitumor activity: tenfold

## polymyxin B
[8]
  plasma half life: 4.5 h
